pKi: −log10 of the molar value.
What was measured:
[1] = target: T1, Signal transducer and activator of transcription 5A (Homo sapiens, UniProt P42229); assay: Induction of STAT5 degradation in human SKNO-1 cells measured for 18 hrs by Western blot analysis; type: cell-based
T1 sequence (P42229 whole entry): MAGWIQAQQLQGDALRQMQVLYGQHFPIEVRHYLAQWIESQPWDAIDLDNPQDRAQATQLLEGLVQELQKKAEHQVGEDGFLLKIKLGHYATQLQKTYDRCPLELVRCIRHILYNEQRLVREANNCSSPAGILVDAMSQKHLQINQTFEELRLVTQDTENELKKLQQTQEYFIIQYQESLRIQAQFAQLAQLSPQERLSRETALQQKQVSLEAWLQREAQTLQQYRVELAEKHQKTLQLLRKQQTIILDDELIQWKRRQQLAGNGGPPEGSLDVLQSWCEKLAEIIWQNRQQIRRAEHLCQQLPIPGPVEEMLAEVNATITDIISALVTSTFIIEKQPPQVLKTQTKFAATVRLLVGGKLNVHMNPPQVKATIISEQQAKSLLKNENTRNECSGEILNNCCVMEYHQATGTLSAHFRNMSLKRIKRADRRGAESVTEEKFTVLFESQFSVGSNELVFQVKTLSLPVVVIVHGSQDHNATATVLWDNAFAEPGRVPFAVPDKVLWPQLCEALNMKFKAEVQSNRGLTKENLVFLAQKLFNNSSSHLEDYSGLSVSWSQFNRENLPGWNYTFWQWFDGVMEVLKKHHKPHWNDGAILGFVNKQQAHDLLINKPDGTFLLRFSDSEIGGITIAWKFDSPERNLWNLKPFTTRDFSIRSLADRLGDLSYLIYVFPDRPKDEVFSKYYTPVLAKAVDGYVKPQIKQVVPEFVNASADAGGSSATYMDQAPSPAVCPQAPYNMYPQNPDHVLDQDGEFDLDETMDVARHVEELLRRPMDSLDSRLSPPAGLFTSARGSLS

[2] = target: T2, Signal transducer and activator of transcription 6 (Homo sapiens, UniProt P42226); assay: Induction of STAT6 degradation in human SKNO-1 cells measured for 18 hrs by Western blot analysis; type: cell-based
T2 sequence (P42226 whole entry): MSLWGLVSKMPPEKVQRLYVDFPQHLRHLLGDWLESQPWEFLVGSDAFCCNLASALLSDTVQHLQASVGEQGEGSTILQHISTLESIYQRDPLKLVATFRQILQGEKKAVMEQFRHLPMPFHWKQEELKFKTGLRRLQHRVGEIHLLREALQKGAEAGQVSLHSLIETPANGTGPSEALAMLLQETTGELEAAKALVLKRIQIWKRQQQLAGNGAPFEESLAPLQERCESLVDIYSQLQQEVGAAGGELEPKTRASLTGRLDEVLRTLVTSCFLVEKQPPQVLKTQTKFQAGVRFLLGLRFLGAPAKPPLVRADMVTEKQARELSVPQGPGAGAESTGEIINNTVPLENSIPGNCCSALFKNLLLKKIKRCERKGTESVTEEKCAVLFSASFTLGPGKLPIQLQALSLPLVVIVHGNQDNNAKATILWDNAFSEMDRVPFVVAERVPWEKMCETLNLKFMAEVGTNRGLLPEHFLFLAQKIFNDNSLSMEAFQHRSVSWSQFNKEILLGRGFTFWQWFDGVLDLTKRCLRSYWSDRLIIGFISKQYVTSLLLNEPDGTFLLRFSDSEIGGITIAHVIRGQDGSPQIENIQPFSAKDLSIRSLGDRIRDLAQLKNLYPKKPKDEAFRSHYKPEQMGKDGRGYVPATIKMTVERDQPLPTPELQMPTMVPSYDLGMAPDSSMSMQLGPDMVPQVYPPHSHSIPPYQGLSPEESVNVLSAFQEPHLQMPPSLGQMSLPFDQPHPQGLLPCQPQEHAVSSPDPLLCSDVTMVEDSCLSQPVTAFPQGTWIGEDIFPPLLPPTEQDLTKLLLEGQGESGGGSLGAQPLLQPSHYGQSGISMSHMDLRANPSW

[3] = target: T2, Signal transducer and activator of transcription 6; assay: Binding affinity to STAT6 SH2 domain (unknown origin) assessed as inhibition constant by FP assay
[4] = target: T1, Signal transducer and activator of transcription 5A; assay: Binding affinity to N-terminal 6his-tagged human STAT5A (136 to 705 residues) expressed in Escherichia coli BL21-DE3 rosetta cells assessed as inhibition constant by FP assay
[5] = target: T3, Signal transducer and activator of transcription 5B (Homo sapiens, UniProt P51692); assay: Binding affinity to STAT5B (unknown origin) assessed as inhibition constant by FP assay
T3 sequence (P51692 whole entry): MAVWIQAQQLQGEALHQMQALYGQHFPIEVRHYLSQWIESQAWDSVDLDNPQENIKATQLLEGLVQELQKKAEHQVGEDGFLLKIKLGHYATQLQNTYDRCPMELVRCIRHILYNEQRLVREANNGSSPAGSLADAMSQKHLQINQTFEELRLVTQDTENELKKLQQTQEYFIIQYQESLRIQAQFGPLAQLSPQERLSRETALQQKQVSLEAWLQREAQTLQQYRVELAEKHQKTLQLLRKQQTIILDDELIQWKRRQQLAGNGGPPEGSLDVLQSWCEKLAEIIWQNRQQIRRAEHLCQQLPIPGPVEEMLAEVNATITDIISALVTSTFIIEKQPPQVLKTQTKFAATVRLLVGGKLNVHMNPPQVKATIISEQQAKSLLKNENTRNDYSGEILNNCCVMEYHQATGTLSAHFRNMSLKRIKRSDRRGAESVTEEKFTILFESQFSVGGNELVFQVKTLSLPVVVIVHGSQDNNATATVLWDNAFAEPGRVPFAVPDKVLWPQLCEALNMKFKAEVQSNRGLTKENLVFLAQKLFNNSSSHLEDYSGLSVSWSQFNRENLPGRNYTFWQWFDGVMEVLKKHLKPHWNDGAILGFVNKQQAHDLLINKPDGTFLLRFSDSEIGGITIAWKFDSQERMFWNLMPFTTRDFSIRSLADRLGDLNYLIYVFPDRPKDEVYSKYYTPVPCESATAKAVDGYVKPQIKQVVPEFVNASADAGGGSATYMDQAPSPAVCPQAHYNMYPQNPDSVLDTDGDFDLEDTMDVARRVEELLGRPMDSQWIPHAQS

Row | SMILES | DC50 [1] | DC50 ([2]; read-out: DC50) | DC50 [2] | pKi [3] | pKi [4] | pKi [5]
1 | CC(C)(C)[C@H](NC(=O)c1cc2cc(C(F)(F)P(=O)(O)O)ccc2s1)C(=O)N1CCC[C@H]1C(=O)N(CCC(=O)N1CC(CC#Cc2cccc3c2CN(C2CCC(=O)NC2=O)C3=O)C1)c1ccc(Br)cc1 (stereo not given in full) | > 5000 nM |  | Not Active |  |  | 
2 | CN(C)C(=O)CCN(C(=O)[C@@H]1CCCN1C(=O)[C@@H](NC(=O)c1cc2cc(C(F)(F)P(=O)(O)O)ccc2s1)C(C)(C)C)c1cccc(-c2nccs2)c1 |  |  |  | 5.72 | 5.31 | 5.21
3 | CC(C)(C)[C@H](NC(=O)c1cc2cc(C(F)(F)P(=O)(O)O)ccc2s1)C(=O)N1CCC[C@H]1C(=O)N(CCC(=O)N1CCC(Nc2cccc3c2CN(C2CCC(=O)NC2=O)C3=O)CC1)c1ccc(Br)cc1 (stereo not given in full) | > 5000 nM |  | Not Active |  |  | 
4 | CN(C)C(=O)CCN(C(=O)[C@@H]1CCCN1C(=O)[C@@H](NC(=O)c1cc2cc(C(F)(F)P(=O)(O)O)ccc2s1)c1ccccc1)c1ccc(-c2nccs2)cc1 |  |  |  | 5.60 | 5.49 | 5.40
5 | CN(C)C(=O)CCN(C(=O)[C@@H]1CCCN1C(=O)[C@H](CCc1ccccc1)NC(=O)c1cc2cc(C(F)(F)P(=O)(O)O)ccc2s1)c1ccc(-c2nccs2)cc1 |  |  |  | 5.82 | 5.85 | 5.80
6 | CN(C)C(=O)CCN(C(=O)[C@@H]1CCCN1C(=O)[C@@H](NC(=O)c1cc2cc(C(F)(F)P(=O)(O)O)ccc2s1)C(C)(C)C)c1ccc(-c2ccccc2)cc1 |  |  |  | 5.70 | 5.47 | 5.28
7 | CC(C)(C)[C@H](NC(=O)c1cc2cc(C(F)(F)P(=O)(O)O)ccc2s1)C(=O)N1CCC[C@H]1C(=O)N(CCC(=O)N1CCC(C#Cc2cccc3c2CN(C2CCC(=O)NC2=O)C3=O)CC1)c1ccc(Br)cc1 (stereo not given in full) | > 5000 nM |  | Not Active |  |  | 
8 | CN(C)C(=O)CCN(C(=O)[C@@H]1CCCN1C(=O)[C@H](Cc1ccc(Br)cc1)NC(=O)c1cc2cc(C(F)(F)P(=O)(O)O)ccc2s1)c1ccc(-c2nccs2)cc1 |  |  |  | 5.52 | 5.92 | 5.80
9 | CN(C)C(=O)CCN(C(=O)[C@@H]1CCCN1C(=O)[C@@H](NC(=O)c1cc2cc(C(F)(F)P(=O)(O)O)ccc2s1)C1CC1)c1ccc(-c2nccs2)cc1 |  |  |  | 5.89 | 5.54 | 5.51
10 | CC(C)(C)[C@H](NC(=O)c1cc2cc(C(F)(F)P(=O)(O)O)ccc2s1)C(=O)N1CCC[C@H]1C(=O)N(CCC(=O)N1CC(CCC#Cc2cccc3c2CN(C2CCC(=O)NC2=O)C3=O)C1)c1ccc(Br)cc1 (stereo not given in full) | 4200 nM |  | Not Active |  |  | 

Continued, values first:

Row | DC50 [1] | DC50 ([2]; read-out: DC50) | DC50 [2] | pKi [3] | pKi [4] | pKi [5] | SMILES
11 | 1400 nM | > 5000 nM |  |  |  |  | CC(C)(C)[C@H](NC(=O)c1cc2cc(C(F)(F)P(=O)(O)O)ccc2s1)C(=O)N1CCC[C@H]1C(=O)N(CCC(=O)NCCCCCCC#Cc1cccc2c1CN(C1CCC(=O)NC1=O)C2=O)c1ccc(Br)cc1 (stereo not given in full)
12 | 180 nM |  |  |  | 5.92 | 6.10 | CC(C)(C)[C@H](NC(=O)c1cc2cc(C(F)(F)P(=O)(O)O)ccc2s1)C(=O)N1CCC[C@H]1C(=O)N(CCC(=O)NCCCC#Cc1cccc2c1CN(C1CCC(=O)NC1=O)C2=O)c1ccc2sccc2c1 (stereo not given in full)
13 | > 5000 nM | > 5000 nM |  |  |  |  | CC(C)(C)[C@H](NC(=O)c1cc2cc(C(F)(F)P(=O)(O)O)ccc2s1)C(=O)N1CCC[C@H]1C(=O)N(CCC(=O)NCCC#Cc1cccc2c1CN(C1CCC(=O)NC1=O)C2=O)c1ccc(Br)cc1 (stereo not given in full)
14 | 450 nM |  |  |  | 6.00 | 6.40 | CC(C)(C)[C@H](NC(=O)c1cc2cc(C(F)(F)P(=O)(O)O)ccc2s1)C(=O)N1CCC[C@H]1C(=O)N(CCC(=O)NCCCC#Cc1cccc2c1CN(C1CCC(=O)NC1=O)C2=O)c1ccc2scnc2c1 (stereo not given in full)
15 | 500 nM | > 5000 nM |  |  |  |  | CC(C)(C)[C@H](NC(=O)c1cc2cc(C(F)(F)P(=O)(O)O)ccc2s1)C(=O)N1CCC[C@H]1C(=O)N(CCC(=O)NCCCCC#Cc1cccc2c1CN(C1CCC(=O)NC1=O)C2=O)c1ccc(Br)cc1 (stereo not given in full)
16 | 1100 nM | > 5000 nM |  |  |  |  | CC(C)(C)[C@H](NC(=O)c1cc2cc(C(F)(F)P(=O)(O)O)ccc2s1)C(=O)N1CCC[C@H]1C(=O)N(CCC(=O)NCCCCCC#Cc1cccc2c1CN(C1CCC(=O)NC1=O)C2=O)c1ccc(Br)cc1 (stereo not given in full)

Source: ChEMBL document CHEMBL5380794, “Discovery of a Potent and Selective STAT5 PROTAC Degrader with Strong Antitumor Activity In Vivo in Acute Myeloid Leukemia” (J Med Chem, 2023)
